Measurements from the SangsterLogP compilation.
One block for each compound: values may come before it.

Key:
[1] = method code SF-HPLC, from DOI: 10.1248/cpb.47.1081, PMID: 10478463; settings: pH 6.5
[2] = from Ganellin, C.; Brown, T.; Griffiths, R.; Jones, M.; Mitchell, C.; Rana, K.; Saunders, D.; Smith, I.; Sore, E.; Wilks, J.; Young, R. (1991). Use of partition coefficients as a model for brain …
[3] = method code SF-AS, from DOI: 10.1016/0378-5173(85)90003-1
[4] = method code SF-HPLC, from DOI: 10.1016/s0024-3205(00)00615-9, PMID: 10901288; settings: pH 5.0
[5] = not given; remark: listed apart in the source
[6] = method code SF-RC, from DOI: 10.1016/j.nucmedbio.2014.05.001, PMID: 24969632; settings: pH 7.4
[7] = method code SF-HPLC, from DOI: 10.1016/0731-7085(91)80215-u, PMID: 1821151; settings: pH 7.4
[8] = method code SF, from DOI: 10.1021/jm00294a005, PMID: 5000561
[9] = method code SF-AS, from DOI: 10.1016/s0020-1693(00)85781-3
[10] = not given; remark: listed apart in the source
[11] = method code SF-AS, from DOI: 10.1021/jm00234a001, PMID: 1003419
[12] = method code SF-HPLC, from DOI: 10.1016/s0223-5234(98)80037-8; settings: pH 7.4
[13] = method code SF-AS, from DOI: 10.1248/bpb1978.4.759, PMID: 7320829
[14] = not given; remark: listed apart in the source
[15] = method code SF-AS, from DOI: 10.1002/ardp.19853180604, PMID: 4026543; settings: pH 7.4
[16] = not given; remark: listed apart in the source
[17] = method code SF-AS, from DOI: 10.3109/03639048709068705
[18] = method code SF-HPLC, from DOI: 10.1016/j.bmc.2015.09.009, PMID: 26385444
[19] = not given; remark: listed apart in the source

logP: 3.59
Compound: CN1CCC(=C2c3ccccc3CCc3cccnc32)CC1

logP [2]: 5.41
Compound: c1cc(CN2CCCCC2)cc(OCCCNc2nc3ccccc3s2)c1

logD [6]: 3.61
Compound: O=C(N1CCN(C(c2ccccc2)c2ccccc2)CC1)n1nnc2ccccc21

logP [13]: 3.27
Compound: Nc1ccc(S(=O)(=O)N2C(=O)NC(=O)C2(c2ccccc2)c2ccccc2)cc1

logD [12]: 5.36
Compound: CC(C)Cc1ccc(C(C)C(=O)OCN2C(=O)c3ccccc3C2=O)cc1 (centres undefined)

logP [14]: 2.7
Compound: Cc1cccc2c1Oc1ccccc1C2NC(=O)CN(C)C (centres undefined)

logD [12]: 3.23
Compound: CC(=O)Oc1ccccc1C(=O)OCN1C(=O)c2ccccc2C1=O

logP [17]: 6.3
Compound: CCCCC(=O)OC(CNC(C)C)COc1cccc2ccccc12 (centres undefined)

logP [18]: 2.22
Compound: CC1=C(C(=O)Nc2nc3ccccc3s2)C(c2ccc(N(C)C)cc2)NC(=S)N1 (centres undefined)

logP: 3.9
Compound: OC(CCCN1CCC(C(O)(c2ccccc2)c2ccccc2)CC1)c1ccccc1 (centres undefined)

logP [17]: 7.87
Compound: CCCCCCCC(=O)OC(CNC(C)C)COc1cccc2ccccc12 (centres undefined)

The next lines start with the compound.

Compound: CO/N=C(/C(=O)NC1C(=O)N2C(C(=O)OCc3oc(=O)oc3C)=CCSC12)c1csc(N)n1 (centres undefined)
logD [1]: 0.17

Compound: CC(=O)OCC1=C(C(=O)OCOC(=O)C(C)(C)C)N2C(=O)C(NC(=O)CSc3ccncc3)C2SC1 (centres undefined)
logD ([3]; pH 4.6): 1.63

Compound: CCN(CC)C(=O)C(C#N)=Cc1cc(OC(=O)NC(C)(C)C)c(O)c([N+](=O)[O-])c1
logD [4]: 1.8

Compound: COc1ccc2cc(C(C)C(=O)OCC(COC(=O)C(C)c3ccc4cc(OC)ccc4c3)OC(=O)C(C)c3ccc4cc(OC)ccc4c3)ccc2c1 (centres undefined)
logP [5]: 6.84

Compound: CC(C)(C)C(=O)OCOC(=O)C1=C(CSc2nncs2)CSC2C(NC(=O)Cn3cnnn3)C(=O)N12 (centres undefined)
logD ([3]; pH 4.6): 1.45

Compound: CCC(=O)OCC(c1cncn1C)C(CC)C(=O)OCC1CCCCC1 (centres undefined)
logD [7]: 4.4

Compound: CCC(=O)OC1C(C)OC(OC2C(C)OC(OC3C(CC=O)CC(C)C(O)/C=C/C=C/CC(C)OC(=O)CC(OC(C)=O)C3OC)C(O)C2N(C)C)CC1(C)O (centres undefined)
logP [8]: 1.38

Compound: CCc1ccc2c(c1)COCCOCCOCCOCCOCCOC2
logP [9]: 0.98

Compound: CCCCCCCCCCCCCCCCCc1cc(O)cc(O)c1
logP [10]: 9.2

Compound: OCC1OC(Oc2c(I)cc(I)c(OC3OC(CO)C(O)C(O)C3O)c2I)C(O)C(O)C1O (centres undefined)
logP [11]: -0.74

Compound: Cc1nnc(SCC2=C(C(=O)OCOC(=O)C(C)(C)C)N3C(=O)C(NC(=O)Cn4cnnn4)C3SC2)s1 (centres undefined)
logD ([3]; pH 4.5): 1.34

Compound: COc1ccc2cc(C(C)C(=O)OCC3COC(C)(C)O3)ccc2c1 (centres undefined)
logP [5]: 4.23

Compound: CN(C)Cc1ccc(CSCCNc2nc(=O)c(Cc3ccc4ccccc4c3)c[nH]2)o1
logP [2]: 4.57

Compound: COc1ccc2c(c1)c(CC(=O)OCN1C(=O)c3ccccc3C1=O)c(C)n2C(=O)c1ccc(Cl)cc1
logD [12]: 5.64

Compound: CNC(=O)c1c(I)c(O[C@@H]2O[C@H](CO)[C@@H](O)[C@H](O)[C@H]2O)c(I)c(O[C@@H]2O[C@H](CO)[C@@H](O)[C@H](O)[C@H]2O)c1I
logP [11]: -1.57

Compound: COc1ccc2cc(C(C)C(=O)OCC(O)CO)ccc2c1 (centres undefined)
logP [5]: 2.65

Compound: COc1ccc(N2C(=O)CSC2=Nn2c(C)nc3ccccc3c2=O)cc1
logD [15]: -1.23

Compound: CCCOc1ccc(C(=O)C2c3cccc(O)c3C(=O)c3c(O)cccc32)cc1
logP [16]: 3.44

Compound: OCC1OC(Oc2cc(OC3OC(CO)C(O)C(O)C3O)c(I)cc2I)C(O)C(O)C1O (centres undefined)
logP [11]: -0.25

Compound: Cc1cccc2c1Oc1cc(Cl)ccc1C2NC(=O)CN(C)C (centres undefined)
logP [14]: 3.44

Compound: Cc1nc2ccccc2c(=O)n1N=C1SCC(=O)N1c1ccc(F)cc1
logD [15]: -1.36

Compound: CC1=C(CC(=O)O)c2cc(F)ccc2/C1=C/c1ccc(S(C)(=O)=O)cc1
logP [19]: 3.29

Compound: CCCCNC(=O)Oc1cc(/C=C(\C#N)C(=O)N(CC)CC)cc([N+](=O)[O-])c1O
logD [4]: 1.98
